The results in this text go back to US20220298160A1, “COMPOUNDS USEFUL IN HIV THERAPY” (priority 2019, published 2022).

Where two headings read alike, the source gives them in different places. Bounds are passed on as bounds.

Assay [1] concerns HIV pseudotyped virus (NL4-3 provirus), M184V. Type of assay: cell-based. The conditions noted are these: PSV assay; U373 cells expressing human CD4 and CXCR4 or CCR5; luciferase signal after 3 days of culture.
In assay [2] the test system is HIV pseudotyped virus (NL4-3 provirus), WT. As to the kind of experiment: PSV assay (pseudotyped virus assay), WT. The following applies: U373 cells expressing human CD4 and CXCR4 or CCR5, luciferase signal after 3 days of culture.
Description: A pseudotyped virus assay (PSV) was used to assess the potency of the HIV inhibitor. Replication defective virus was produced by co-transfection of a plasmid containing an NL4-3 provirus [containing a mutation in the envelope open reading frame (ORF) and a luciferase reporter gene replacing the nef ORF] and a CMV-promoter expression plasmid containing an ORF for various HIV gp160 envelope clones. The harvested virus was stored at −80 C in small aliquots and the titer of the virus measured to produce a robust signal for antiviral assays.
The PSV assay was performed by using U373 cells stably transformed to express human CD4, the primary receptor for HIV entry and either human CXCR4 or human CCR5 which are the co-receptors required for HIV entry as target cells for infection. […] This dose-range was applied to U373 cells and the pre-made pseudotyped virus added. The amount of luciferase signal produced after 3 days of culture was used to reflect the level of pseudotyped virus infection. An IC50, or the concentration of inhibitor required to reduce PSV infection by 50% from the infection containing no inhibitor was calculated. […] IC50 values were determined from a 10 point dose response curve using 3-4-fold serial dilution for each compound, which spans a concentration range >1000 fold.
Where [3] appears, read: Human immunodeficiency virus 1, NL43, in Homo sapiens, 72 h, read-out: WT IC50 (μM), PSV assay.

Take `C#C[C@]1(COC(=O)NCCCCC)O[C@@H](n2cnc3c(N)nc(F)nc32)C[C@@H]1O` [Example 4, ((2R,3S,5R)-5-(6-amino-2-fluoro-9H-purin-9-yl)-2-ethynyl-3-hydroxytetrahydrofuran-2-yl)methyl pentylcarbamate]: the IC50 in assay [1] is over 25000 nM; in assay [2] (setting [3]), 2.66 µM.

For the molecule `C#C[C@]1(CO)O[C@@H](n2cnc3c(NC(=O)OC(COCCCCC)COC(=O)CCCC)nc(F)nc32)C[C@@H]1O` (single isomer, unassigned) [Example 38], the half-inhibitory concentration (IC50) worked out at 23.4 nM in assay [1] and 0.007 µM in assay [2] (read-out: WT IC50, PSV assay).

`C#C[C@]1(CO)O[C@@H](n2cnc3c(N)nc(F)nc32)C[C@@H]1OC(=O)NCCCCCCCCCCCCCCCCCC` [Example 16, (2R,3S,5R)-5-(6-amino-2-fluoro-9H-purin-9-yl)-2-ethynyl-2-(hydroxymethyl)tetrahydrofuran-3-yl octadecylcarbamate]: the values for the IC50 in assay [1] and in assay [2] (setting [3]) were 22400 nM and 15 µM, respectively.

As usually defined, the IC50 is the concentration needed to halve the response being measured.
